The text below walks through data of a melting point compilation (Tetko et al.; mined from patent text by program, amines drawn as free bases though some values may be those of a salt).

For `CC(=O)Nc1ccc(-n2nc(CCCCCC(=O)O)c3c2CCC3)cc1`, the melting point was 149 to 150 °C.

Regarding `Cc1c(N)c2c(c3c1C(c1ccc(C(C)C)cc1)CO3)CCC2` (stereo unspecified), the melting point lay in the range of 112 to 113 °C.

Regarding `CCCCCCCCSc1ccc(C#N)c(C#N)c1`, the melting point fell in the range of 37 to 38 °C.

`CC(C)CCCC(C)C1CCC2C3CCC4=CC(=O)C=CC4(C)C3CCC12C` (stereo unspecified): the melting point was 50 to 57 °C.

In turn, `CC(C)(N)CSCCO` had a melting point of 49 to 51 °C.

As to `C=CC(=O)NCC(=O)Nc1cc(Cl)c(C)c(Cl)c1O`, the melting point is 225 to 227 °C.

Turning to `CS(=O)(=O)c1ccc(C2=C(c3ccccc3)C(=O)N(c3ccc(F)cc3)C2=O)c(F)c1`, the melting point was 198 to 200 °C.

`O=S(=O)(Cc1ccc(Cl)cc1)Cc1ccc(Cl)cc1` yielded a melting point of 94 to 95 °C.

Consider `Cc1nc2c(s1)C(=O)C=C(NCCCN(C)CCCNC1=CC(=O)c3sc(C)nc3C1=O)C2=O`, for which the melting point lay within 94 to 96 °C.

Turning to `Cc1nc2c(OCc3c(Cl)ccc(N(C)C(=O)CO)c3Cl)cccn2c1Br`, the melting point lay in the range of 217 to 218 °C.

Compound `COc1ccc(Oc2nc(Nc3cccc(C(=O)O)c3)nc(Oc3ccc(C#N)cc3)n2)cc1` registered a melting point of 240 to 242 °C.

With `CN(CCO)c1ccc(C=Cc2ccc(S(C)(=O)=O)cc2)cc1`, the melting point was in the range of 201 to 204 °C.

`O=C(O)COc1cccc(-n2nc(-c3ccc(F)cc3)c3cccnc32)c1` yielded a melting point of 225 to 226 °C.

For `C=CC1(CC(=O)O)CC(C)(C)CC(C)(C)C1`, the melting point fell in the range of 92 to 94 °C.

Compound `CNC(=N[N+](=O)[O-])N(C)Cc1ccc(Cl)nc1` returned a melting point of 136 to 137 °C.

`Cc1ccc2nc(-c3cccc(C(=O)O)c3)oc2c1` came in with a melting point of 239 to 241 °C.

Compound `CCOC(=O)COc1cccc2c1CCC(Br)C2=O` (stereo unspecified) showed a melting point of 74 to 75 °C.

In turn, `CCOC(=O)c1cn(CCF)c2nc(SCC)c(F)cc2c1=O` yielded a melting point of 271 to 273 °C.

`O=C1c2ccccc2S(=O)(=O)N1CSc1nnc(SCCN2CCOCC2)s1`: the melting point fell in the range of 129 to 131 °C.

`OCC1OC(n2cnc3c(NCc4ccc5ccc6cccc7ccc4c5c67)ncnc32)C(O)C1O` (stereo unspecified): the melting point came to 144 °C.

In turn, `O=[N+]([O-])c1cn2c(n1)O[C@@H](CN1CCN(Cc3ccc(-c4ccccc4)cc3)CC1)C2` registered a melting point of 207 to 208 °C.

`c1ccc2c(c1)Cc1c(-c3ccsc3)n[nH]c1-2`: the melting point lay in the range of 219 to 220 °C.

Turning to `CCCn1cc(C2(c3cccc(Br)c3)N=C(N)N(C)C2=O)cc1C(=O)CC` (stereo unspecified), the melting point amounted to 260 °C.

`CCC(=O)c1cc(-c2cccc(O)c2)cs1` had a melting point of 112 °C.

`CNC(=O)c1ccccc1Nc1nc(Nc2cccc3c2N(C)CCN(C)C3=O)ncc1Cl` came in with a melting point of 243 to 244 °C.

In the case of `CCc1cccc(C)c1CNc1cc(C(=O)NCCO)nc2c1nc(C)n2C`, the melting point was 256 to 258 °C.

Turning to `CC(CC#N)N1C(=O)C2(OCCCO2)c2cc(Br)ccc21` (stereo unspecified), the melting point fell in the range of 112 to 113 °C.

Compound `NC1=NS(=O)N=C1NCCCCN(Cc1ccc(Cl)cc1)c1ccccn1` (stereo unspecified) yielded a melting point of 175 to 177 °C.

`CCOC(=O)COc1ccc(Br)cc1C1C(C(=O)OCC)=C(C)NC(C)=C1C(=O)OCC` displayed a melting point of 153 to 154 °C.

Compound `Nc1c(Cl)cc(S(=O)(=O)C(F)(F)F)cc1[N+](=O)[O-]` showed a melting point of 138 to 139 °C.

`COc1ccc(C(=O)C2(Br)CCCCC2)c(Cl)c1Cl`: the melting point lay within 94 to 95 °C.

Compound `O=C1NC(=O)c2c1c(-c1ccccc1Cl)cc1[nH]c3ccc(CCO)cc3c21` returned a melting point of 253 to 257 °C.

Regarding `CC1CC(=O)NN=C1c1ccc(NC(=O)c2ccco2)cc1` (stereo unspecified), the melting point lay within 213 to 216 °C.

`CCOC(=O)CNC(=O)C(C)(C(C)C)C(C)C` came in with a melting point of 74.5 to 75.5 °C.

The compound `OCC12CO[C@@H](c3ccc(F)cc3)N1[C@H](c1ccc(F)cc1)OC2` gave a melting point of 115 °C.

In turn, `Cn1cccc1CCNc1nc(-c2cccnc2)nc2ccccc12` displayed a melting point of 140 to 142 °C.

In the case of `OCCCCOC(c1ccccc1)(c1ccccc1)c1ccccc1`, the melting point was in the range of 73 to 74 °C.

On to `Cc1ccc([N+](=O)[O-])cc1NC(=N)N`, for which the melting point lay in the range of 135 to 142 °C.

In turn, `NC(=O)c1cnn2cccc2c1Nc1ccccc1` came in with a melting point of 247 °C.

In turn, `CC1(C2CCCC2)Cc2cc(OCC(=O)O)c(Cl)c(Cl)c2C1=NO` (stereo unspecified) displayed a melting point of 230 °C.

Turning to `CC(=O)Nc1ccc(-n2ccnc2SCc2ccccc2N2CCOCC2)nc1`, the melting point was in the range of 164 to 167 °C.

`Cc1c[nH]c2ccc(O)cc12` showed a melting point of 116 °C.

Compound `Cc1[nH]c(-c2ccccc2)nc1CO` showed a melting point of 197 to 199 °C.

Regarding `c1ccc(NCP2CN(c3ccccc3)CN(c3ccccc3)C2)cc1`, the melting point lay in the range of 96 to 97 °C.

With `NC(=O)c1ccc(OCCNCC(O)COc2ccc(-c3csnn3)cc2)cc1` (stereo unspecified), the melting point is 173 to 174 °C.

The compound `N=C(Nc1cc(NC(=O)/C=C/c2ccccc2C(F)(F)F)ccc1Cl)c1ccccc1` returned a melting point of 188 to 189 °C.

`COc1ccc(N2CCN(n3ccnc3SC)CC2)cc1` showed a melting point of 140 °C.

Take `COc1ccccc1COc1ccc(S(=O)(=O)c2ccc(C)nc2Nc2ccc(S(C)(=O)=O)cc2Cl)cc1`: the melting point fell in the range of 100 to 102 °C.

The compound `CCN1C(=O)C2=C(c3cccc(Cl)c3)N(CC)C(=O)C2=C1c1cccc(Cl)c1` showed a melting point of 203 to 205 °C.

In the case of `Nc1ncc2ncn(CCC(CO)CO)c2n1`, the melting point came out at 154 °C.

For `CSc1cc(C)nc(SC)c1NC(=O)CN1CCN(CCSc2nc3ccccc3o2)CC1`, the melting point was 140 to 141 °C.

Compound `Cc1cccc(SSc2cccc(C)c2C(=O)Nc2ccc(S(N)(=O)=O)cc2)c1C(=O)Nc1ccc(S(N)(=O)=O)cc1` displayed a melting point of 273 to 275 °C.

The compound `CNC(=O)NC(Cc1c[nH]c2ccccc12)C(=O)OCc1cc(C)cc(C)c1` (stereo unspecified) came in with a melting point of 66 to 68 °C.

Turning to `CNS(=O)(=O)OCCOc1ccc(Cl)cc1`, the melting point lay in the range of 101 to 104 °C.

As to `Cc1c(-c2ccncc2)[nH]c(-c2ccncc2)c1C=O`, the melting point was in the range of 278 to 280 °C.

The compound `CCCn1c(-c2ccc(-n3ccnc3)cc2)cnc1[C@H](Cc1ccccn1)N(C=O)c1cc2cc(Cl)ccc2o1` displayed a melting point of 173 to 175 °C.

With `CCc1c(O)ccc2c1CCCC2`, the melting point was 94 to 95 °C.

As for `CCN1C(=O)CCCc2c1ccc(Nc1ncc(Cl)c(Nc3ccccc3C(=O)NC)n1)c2OC`, the melting point lay in the range of 225 to 227 °C.

`CCNc1c(C(=O)OCC)c(C)nc(OCC)c1[N+](=O)[O-]` returned a melting point of 40 to 42 °C.

`O=C1CCCCC1c1ccccc1F` (stereo unspecified) came in with a melting point of 47 to 49 °C.

`O=Nc1c(-c2ccc(Cl)cc2)nc2sc3ccccc3n12`: the melting point was 203 to 206 °C.

For the compound `Cc1cc(NCCO)c([N+](=O)[O-])cc1O`, the melting point stood at 174 °C.

Turning to `CN(c1ccc(F)cc1)c1nc(=O)c2cccnc2s1`, the melting point lay in the range of 184 to 185 °C.

In turn, `CCCCOc1ccc(S(=O)(=O)C2(C(=O)NO)CCN(Cc3ccncc3)CC2)cc1` showed a melting point of 118 °C.

In the case of `CC(C)CC(=O)Nc1cccc(-c2ccnc3c(C(=O)C4CCCC4)cnn23)c1`, the melting point lay within 69 to 71 °C.

`C=CCCCCS(=O)(=O)C[C@@H](C)C(=O)O` displayed a melting point of 51 to 54 °C.

As for `CCN(CCOc1ccc(NC(=O)c2cccc3c(=O)c4ccccc4[nH]c23)cc1)Cc1ccccc1`, the melting point amounted to 157 °C.

In the case of `COc1cc2c3c(cccc3c1CNC(C)=O)C(=O)N(O)C2=O`, the melting point was in the range of 237 to 239 °C.

Consider `COc1cc(C(=O)c2ncc3ccc(C(=O)O)cn23)ccc1[N+](=O)[O-]`, for which the melting point came to 313 °C.

`CC1(C)[C@@H](CNC(=O)c2ccccc2F)CC[C@@]1(C)NCC(=O)N1C[C@@H](F)C[C@H]1C#N` showed a melting point of 123 to 127 °C.

Take `N#Cc1cnc2c(cc([N+](=O)[O-])c3nncc32)c(-c2ccccc2Cl)n1`: the melting point lay in the range of 193 to 196 °C.

The compound `Cc1nc[nH]c1CSCCNC(=N)NS(N)(=O)=O` returned a melting point of 130 to 133 °C.

Regarding `CC1CN(c2c(F)c(N)c3c(=O)c(C(=O)O)cn(C4CC4)c3c2F)CCN1` (stereo unspecified), the melting point lay within 251 to 253 °C.

With `c1ccc(CN2CCc3[nH]c4ccc(Oc5ccccc5)cc4c3C2)cc1`, the melting point was 102 °C.

Compound `Cc1oc(-c2ccccc2)nc1COc1ccc(Cn2cc(CCC(=O)O)c(-c3ccccn3)c2)cc1` returned a melting point of 155 to 156 °C.

On to `NC(=O)Nc1n[nH]c(-c2ccncc2)c1-c1ccc(F)cc1`, for which the melting point was in the range of 224 to 225 °C.

`Fc1cc(Cn2cncn2)cc2c1Cc1c(-c3ccsc3)n[nH]c1-2` displayed a melting point of 236 to 239 °C.

`CC(C)c1c(S(=O)(=O)c2ccc(O)cc2)c2ccccn2c1C#N` returned a melting point of 232 °C.

`Cc1coc(Cc2ccc(N)cc2)n1` gave a melting point of 84 to 85 °C.

On to `O=C1c2ccccc2C(=O)N1CCc1cc(Br)cs1`, for which the melting point lay in the range of 115 to 117 °C.

The compound `COC(=O)COc1cccc2c1c(C(=O)C(N)=O)c(C)n2Cc1ccccc1` returned a melting point of 202 to 215 °C.

Compound `COc1cc(I)c(C=O)cc1OC(C)C` registered a melting point of 75 to 76 °C.

In turn, `COc1ccc(-c2cc(N3CCOCC3)cc(=O)o2)cc1` had a melting point of 212 to 213 °C.

`Nc1cccc(C(=O)Nc2ccccc2)c1`: the melting point was 118 to 120 °C.

`CSc1ccc2c(C3CCN(C(C)=O)CC3)nn(-c3ccccc3)c2c1` had a melting point of 120 to 122 °C.

In the case of `CC(Cc1ccc(O)cc1)NCC(O)c1cccc(Cl)c1` (stereo unspecified), the melting point was in the range of 50 to 55 °C.

Regarding `COc1ccc(-c2cccn2-c2ccc(S(C)(=O)=O)cc2)cc1`, the melting point lay within 183 to 184 °C.

Consider `Clc1ccc2c(c1)C(c1ccccc1)NC1=NCCN12` (stereo unspecified), for which the melting point was 210 to 213 °C.

Turning to `COc1cccc(C#Cc2ncn3c2[C@@H]2CCCN2C(=O)c2c(Cl)cccc2-3)c1`, the melting point is 204 to 205 °C.

For `CCCn1c(=O)c2nc(C(=O)O)cn2c2ccccc21`, the melting point lay within 232 to 234 °C.

Compound `CC1=C(C(=O)CS(=O)(=O)NC(C)C)C(c2cccc([N+](=O)[O-])c2)C(C(=O)OCCO)=C(C)N1` (stereo unspecified) yielded a melting point of 185 to 188 °C.

As a reminder, the melting point is the temperature of the solid-liquid transition.
